In US10039724B2, “7-hydroxy cannabidiol (7-OH-CBD) for use in the treatment of non-alcoholic fatty liver disease (NAFLD)” (GW Pharma Limited, priority 2014, dated 2018):

Legend:
HHL5 cells [1] = assay: MTT cell viability assay in HHL5 cells; type: cell-based; details: HHL5 cells treated in parallel
Method: (§1) HHL5 cells seeded in 96-well plates were grown to 90% confluence and then treated with 100 uM oleic acid (OA) or DMSO (−) for 24 hours in the absence or presence of cannabinoids at the indicated concentrations.
(§2) MTT (3-[4,5-dimethyltiazol-2yl]-2,5 diphenyltetrazolium bromide) (5 mg/ml differentiation media) was added to cells treated as described above, and cells were incubated for additional 1 h at 37 C.
(§3) Cells were then washed in PBS and dried before the addition of 100 ul of isopropanol to dissolve the formazan precipitate. The OD of each well was measured with a Genios-Pro plate reader (Tecan) equipped with a 620-nm filter.

[2] = test system: 3T3-L1-derived mature adipocytes; assay: Intracellular triglyceride levels (AdipoRed) in 3T3-L1-derived mature adipocytes; type: cell-based; details: for intracellular lipid stores, AdipoRed staining: mature 3T3-L1-derived adipocytes treated for 48 hours
Method: (§4) HHL-5 cells were cultured in standard growth media (DMEM [Lonza] supplemented with 10% FBS [Lonza], NEAA [Gibco] and Pen.Strep [Gibco]). 3T3-L1 cells were cultured in growth media (GM; DMEM [Lonza] low NaHCO3 (1.5 g/l), supplemented with 10% FBS [Lonza] and pen./strep. [Gibco]).
In order to induce adipogenesis cells were grown to 100% confluence and then switched to differentiation media (DMEM [Lonza] supplemented with a specific lot of 10% FBS [Lonza], 1 ug/ml Insulin (Sigma), 250 nM Dexamethasone (Sigma), 500 uM MIX (Sigma) and pen./strep. [Gibco]) for 2 days, followed by incubation in DMEM [Lonza] supplemented with a specific lot of 10% FBS [Lonza], 1 ug/ml Insulin (Sigma) and pen./strep. [Gibco] until day 7-10 at which point mature adipocytes are treated with cannabinoids at the indicated concentrations.
(§5) 3T3-L1 cells were plated in 100 mm plates and differentiated as above to obtain mature adipocytes, at which point they were re-plated into 96-well plates and then treated with the indicated concentrations of cannabinoids for 2 days. Cells were then washed with PBS and stained with AdipoRed (Lonza) and read with a Genios Pro Plate reader (Tecan) according to the manufacturer's instructions.

HHL5 cells [3] = assay: Intracellular triglyceride levels (AdipoRed) in oleic acid-treated HHL5 cells, in vitro model of fatty liver disease; type: cell-based; details: for intracellular lipid (triglyceride) levels, AdipoRed staining: HHL5 cells co-incubated with 100 uM oleic acid and compound for 24 hr
Method: as §4, §1, §5
HHL5 hepatocytes that have been treated with oleic acid to induce intracellular lipid accumulation are a useful in vitro model for fatty liver disease.

[4] = test system: 3T3-L1-derived mature adipocytes; assay: MTT cell viability assay in 3T3-L1-derived mature adipocytes; type: cell-based; details: mature 3T3-L1-derived adipocytes
Method: as §5, §2, §3

HHL5 cells [5] = details: Wargent et al., 2013; cited from earlier work

SMILES	toxicity (cell viability, MTT assay) (HHL5 cells [1]; up to 20 uM)	intracellular lipid stores, AdipoRed staining [2]	intracellular lipid (triglyceride) levels, AdipoRed staining (HHL5 cells [3])	effect on cellular viability (MTT assay) [4]	triglyceride (TG) levels in HHL-5 cells treated with oleic acid (HHL5 cells [5])	toxicity (cell viability, MTT assay) (HHL5 cells [1])	efficacy in reducing Adipored staining compared with CBD ([2]; mature 3T3-L1-derived adipocytes)	potency in lowering TG levels compared with parent compound CBD (HHL5 cells [3]; HHL5 cells, 100 uM oleic acid, 24 hr)
CCCc1cc(O)c2c(c1)OC(C)(C)[C@@H]1CCC(C)=C[C@@H]21 [THCV, Tetrahydrocannabivarin]	no toxicity was found	dose-dependently decreased intracellular lipid stores	dose-dependently lowered intracellular lipid levels	not associated with any apparent effect on cellular viability	able to reduce triglyceride (TG) levels in a time dependent manner	–	–	–
C=C(C)[C@@H]1CCC(CO)=C[C@H]1c1c(O)cc(CCCCC)cc1O [7-OH-CBD, 7-hydroxy-cannabidiol]	–	dose-dependently decreased intracellular lipid stores	effective at lowering TG levels	not associated with any apparent effect on cellular viability	–	neither 11-OH-THCV or 7-OH-CBD were found to be toxic	more efficacious than CBD at reducing Adipored staining	even more potent that its parent compound CBD
C=C(C)[C@@H]1CCC(C)=C[C@H]1c1c(O)cc(CCCCC)cc1O [CBD, Cannabidiol]	no toxicity was found	dose-dependently decreased intracellular lipid stores	dose-dependently lowered intracellular lipid levels	not associated with any apparent effect on cellular viability	–	–	–	–
CCCc1cc(O)c2c(c1)OC(C)(C)[C@@H]1CCC(CO)=C[C@@H]21 [11-OH-THCV, 11-hydroxy-tetrahydrocannabivarin]	–	had no effect	devoid of lipid lowering activity	not associated with any apparent effect on cellular viability	–	neither 11-OH-THCV or 7-OH-CBD were found to be toxic	–	–
